Earlier results, collected in patent publication US6472222B2, “Method of estimating rate of nicotine metabolism in individuals” (Via Christi Research, Inc., priority 1999, dated 2002).

Row | Compound | half-life (plasma) | half-life (biphasic elimination, second phase) (biphasic elimination, longer of two half-lives) [h] | half-life (biphasic elimination, first, short phase) (biphasic elimination, shorter of two half-lives)
1 | CN1C(=O)CC[C@H]1c1cccnc1 [cotinine] | approximately 19 hours |  | 
2 | CN1CCCC1c1cccnc1 (stereo not drawn) [nicotine] |  | ~2 | approximately 10 minutes
